The term IC50 denotes the concentration needed to halve the response being measured.

The structures appear in SMILES notation. A value given as a limit tells only on which side of the number the result lay.

Here are results for ten molecules from BindingDB's records for doi:10.1016/0960-894X(96)00297-1 (1996).

The target in this test is Endothelin-converting enzyme 1 (Cavia porcellus). As to the kind of experiment: In vitro inhibition of phosphoramidon-sensitive membrane bound zinc metalloprotease Endothelin-converting enzyme from partially purified guinea pig lungs.
Take `O=C(N[C@H](Cc1ccccc1)P(=O)(O)CC1(C(=O)N[C@@H](Cc2c[nH]c3ccccc23)C(=O)O)CCCC1)OCc1ccccc1` [(S)-2-({1-[((S)-1-Benzyloxycarbonylamino-2-phenyl-ethyl)-hydroxy-phosphinoylmethyl]-cyclopentanecarbonyl}-amino)-3-(1H-indol-3-yl)-propionic acid]: the IC50 is > 10000 nM. The figure for `CC(=O)N[C@@H](Cc1ccccc1)P(=O)(O)CC1(C(=O)N[C@@H](Cc2c[nH]c3ccccc23)C(=O)O)CCCC1` [(S)-2-({1-[((R)-1-Acetylamino-2-phenyl-ethyl)-hydroxy-phosphinoylmethyl]-cyclopentanecarbonyl}-amino)-3-(1H-indol-3-yl)-propionic acid] is 600 nM.

In turn, `CC(C)C[C@H](NP(=O)(O)O)C(=O)N[C@@H](Cc1c[nH]c2ccccc12)C(=O)O` [(S)-3-(1H-Indol-3-yl)-2-((S)-4-methyl-2-phosphonoamino-pentanoylamino)-propionic acid] yielded a half-inhibitory concentration (IC50) of 1500 nM. Molecule `O=C(N[C@@H](Cc1ccccc1)P(=O)(O)CC1(C(=O)N[C@@H](Cc2c[nH]c3ccccc23)C(=O)O)CCCC1)c1ccccc1` [(S)-2-({1-[((R)-1-Benzoylamino-2-phenyl-ethyl)-hydroxy-phosphinoylmethyl]-cyclopentanecarbonyl}-amino)-3-(1H-indol-3-yl)-propionic acid] had an IC50 of 250 nM.

In the case of `O=C(N[C@@H](Cc1ccccc1)P(=O)(O)CC1(C(=O)N[C@@H](Cc2ccc(O)cc2)C(=O)O)CCCC1)OCc1ccccc1` [(S)-2-({1-[((R)-1-Benzyloxycarbonylamino-2-phenyl-ethyl)-hydroxy-phosphinoylmethyl]-cyclopentanecarbonyl}-amino)-3-(4-hydroxy-phenyl)-propionic acid], the IC50 worked out at 120 nM. For `NCc1ccc(C(=O)N[C@@H](Cc2ccccc2)P(=O)(O)CC2(C(=O)N[C@@H](Cc3c[nH]c4ccccc34)C(=O)O)CCCC2)cc1` [(S)-2-[(1-{[(R)-1-(4-Aminomethyl-benzoylamino)-2-phenyl-ethyl]-hydroxy-phosphinoylmethyl}-cyclopentanecarbonyl)-amino]-3-(1H-indol-3-yl)-propionic acid] the value was 90 nM; for `CC(C)(C)C(=O)N[C@@H](Cc1ccccc1)P(=O)(O)CC1(C(=O)N[C@@H](Cc2c[nH]c3ccccc23)C(=O)O)CCCC1` [(S)-2-[(1-{[(R)-1-(2,2-Dimethyl-propionylamino)-2-phenyl-ethyl]-hydroxy-phosphinoylmethyl}-cyclopentanecarbonyl)-amino]-3-(1H-indol-3-yl)-propionic acid], 550 nM.

With `NC(=O)C[C@H](NC(=O)C1(CP(=O)(O)[C@H](Cc2ccccc2)NC(=O)OCc2ccccc2)CCCC1)C(=O)O` [(S)-2-({1-[((R)-1-Benzyloxycarbonylamino-2-phenyl-ethyl)-hydroxy-phosphinoylmethyl]-cyclopentanecarbonyl}-amino)-succinamic acid], the IC50 was > 1000 nM. For `COc1ccc(C(=O)N[C@@H](Cc2ccccc2)P(=O)(O)CC2(C(=O)N[C@@H](Cc3c[nH]c4ccccc34)C(=O)O)CCCC2)cc1` [(S)-2-[(1-{Hydroxy-[(R)-1-(4-methoxy-benzoylamino)-2-phenyl-ethyl]-phosphinoylmethyl}-cyclopentanecarbonyl)-amino]-3-(1H-indol-3-yl)-propionic acid] the value was 160 nM. For `O=C(N[C@@H](Cc1ccccc1)P(=O)(O)CC1(C(=O)N[C@@H](Cc2c[nH]c3ccccc23)C(=O)O)CCCC1)OCc1ccccc1` [(S)-2-({1-[((R)-1-Benzyloxycarbonylamino-2-phenyl-ethyl)-hydroxy-phosphinoylmethyl]-cyclopentanecarbonyl}-amino)-3-(1H-indol-3-yl)-propionic acid] the value was 190 nM.
